Assays:
[1] = mice, intraperitoneal
Description: After 1 or 6 h, […] of plasma was collected then each animal was perfused with PBS. Brains were collected, weighed, and rinsed with PBS. Water (0.5 ml) was added to the brain samples, which were then homogenized. Plasma and brain samples were each diluted fivefold with blank rat plasma. Three hundred microlitres of internal standard solution was added to the samples, vortexed, and centrifuged. Five microlitres of each sample was injected into an API-4000Qtrap mass spectrometer and quantified (Climax Labs).

ERK1/2 = assay: Western blot of ERK1/2 phosphorylation in mouse fibroblasts; assay type: cell-based; conditions: non-neural cell type, treated for 1 h

C[C@H]1C[C@H]2[C@@H]3CCC4=CC(=O)C=C[C@]4(C)[C@@]3(F)[C@@H](O)C[C@]2(C)[C@@]1(O)C(=O)CCl [clobetasol]
crossing of the blood-brain barrier [1]: readily crossed the blood-brain barrier

Clc1ccc(COC(Cn2ccnc2)c2ccc(Cl)cc2Cl)c(Cl)c1 (centres unmarked) [miconazole]
ERK1/2 phosphorylation in mouse fibroblasts (ERK1/2): no increase of ERK1/2 phosphorylation
